Results published in patent US10227551B2, “Sulfur-containing compounds as solvents” (Novus International, Inc., priority 2015, dated 2019).

Assays:
Aqueous solubility = assay type: physicochemical
Excerpt: Table 5 presents the results.

[1] = Solvent properties (density, boiling point, flash point, freezing point, viscosity); assay type: physicochemical
Excerpt: Isopropyl 2-hydroxy-4-(methylsulfinyl)butanoate (also called iC3SO) has the following properties.
Green or regular hard surface cleaner or degreaser formulations containing commercial surfactants or a mixture (i.e., monomers, dimers, and short oligomers) of octyl 2-hydroxy-4-(methylsulfinyl)butanoate (also called “C8SO”) were formulated, as shown in Table 2 below. The density of C8SO is 1.08 g/mL.

[2] = in water at 25° C. and atmospheric pressure

Structure (SMILES)	Solubility (wt/wt total) (Aqueous solubility; [2]) [wt %]	Solubility (wt/wt total) (Aqueous solubility; in water, marked *Theoretical) [% wt %]	other results
CCCCCCCCNC(=O)C(O)CC[S+](C)[O-] (centres unmarked) [2-Hydroxy-4-(Methylsulfinyl)-N-Octylbutanamide]	>50.0	–	–
CCCCOC(=O)C(O)CC[S+](C)[O-] (centres unmarked) [Butyl 2-Hydroxy-4-(Methylsulfinyl)Butanoate]	–	>50	–
CCCCOC(=O)C(O)CCSC (centres unmarked) [Butyl 2-hydroxy-4-(methylthio)butanoate, Butyl 2-Hydroxy-4-(Methylthio)Butanoate]	0.9	–	–
CCCCCCCCCCOC(=O)C(O)CCS(C)(=O)=O (centres unmarked) [Decyl 2-Hydroxy-4-(Methylsulfonyl)Butanoate]	<0.1	–	–
CCCCCCOC(=O)C(O)CC[S+](C)[O-] (centres unmarked) [Hexyl 2-Hydroxy-4-(Methylsulfinyl)Butanoate]	>50.0	–	–
CSCCC(O)C(=O)OC(C)C (centres unmarked) [Isopropyl 2-hydroxy-4-(methylthio)butanoate]	2.5	–	–
COC(=O)C(O)CC[S+](C)[O-] (centres unmarked) [Methyl 2-Hydroxy-4-(Methylsulfinyl)Butanoate]	–	>50	–
CCCCCCCCOC(=O)C(O)CC[S+](C)[O-] (centres unmarked) [Octyl 2-Hydroxy-4-(Methylsulfinyl)Butanoate]	>50.0	–	–
CC(C)OC(=O)C(O)CC[S+](C)[O-] (centres unmarked) [iC3SO, Isopropyl 2-hydroxy-4-(methylsulfinyl)butanoate]	–	>50	Boiling Point [1]: 248° ° C.; Density [1]: 1.17 g/mL; Flash Point [1]: 194° ° C.; Freezing Point [1]: <−90° ° C.; Viscosity [1]: 519 cps
